# Results: article PMC12040169 (PLOS Biology, 2025)
# Assay: in vitro
# Conditions: human, hela cells, % viability
row,SMILES,"viability at 28.5 h, 10 µM"
1,Cc1nc2cccnc2n1C1CCN(C(=O)C(C)(C)C)CC1 [CBK282426],89.2%
2,Cc1cccc(-c2ocnc2C(=O)NC(C)c2ccccn2)c1 (stereo not shown) [CBK282427],87.4%
3,Cc1cc(C(=O)N2CCn3cc(C(F)(F)F)nc3C2)on1 [CBK282430],101%
4,Cc1noc(C)c1C(=O)N1CCn2cc(C(F)(F)F)nc2C1 [CBK282431],90.2%
5,COc1ccc2cc3c(nc2c1)OC(=O)N(CC1CC1)C3 [CBK282432],86.8%
6,O=C(CN1C(=O)[C@@H]2CCCN2C(=O)c2ccccc21)N1CCCC1 [CBK282434],104%
7,Cc1csc(C(Cc2ccsc2)NCC2=CCCOC2)n1 (stereo not shown) [CBK282439],101%
8,CC(Cc1cccs1)NC(=O)c1cccc(-n2cnnc2)c1 (stereo not shown) [CBK282443],102%
9,Cc1ccc2n1CCN(C(=O)c1cccc(-n3cnnc3)c1)C2C(C)C (stereo not shown) [CBK282444],105%
10,CC(Cc1cccs1)NC(=O)c1cc(-c2ccccn2)n[nH]1 (stereo not shown) [CBK282446],104%
11,Cc1ccc2n1CCN(C(=O)c1cc(-c3ccccn3)n[nH]1)C2C(C)C (stereo not shown) [CBK282447],101%
12,O=C(NC1CC1)c1ccc(-n2cccn2)c(C#Cc2cccnc2)c1 [CBK282449],107%
13,O=C(NCCN1CCC(O)(c2cccc(F)c2)CC1)c1cccs1 [CBK282450],112%
14,O=C(NCCN1CCC(O)(c2cccc(F)c2)CC1)C1CC=CCC1 (stereo not shown) [CBK282451],101%
15,O=C(Cn1c(-c2cccs2)cc2cccnc21)N1CCOCC1 [CBK282452],101%
16,O=C(Cn1c(-c2cccs2)cc2cccnc21)N1CCCC1 [CBK282453],83%
17,O=C(Cn1c(-c2cccs2)cc2cccnc21)NCc1ccncc1 [CBK282456],104%
18,O=C(Cn1c(-c2cccs2)cc2cccnc21)NCc1cccnc1 [CBK282457],105%
19,O=C(Cn1c(-c2cccs2)cc2cccnc21)N1CCC(O)CC1 [CBK282458],113%
20,Cc1cc(C(=O)NC2CCCOC2)c2cccc(Cl)c2n1 (stereo not shown) [CBK282459],95.3%
21,Cc1cc(C(=O)NCCn2ccnc2C)c2cccc(Cl)c2n1 [CBK282460],95.6%
22,CNC(=O)c1ccc(-n2ccnc2)c(-n2cccc2)c1 [CBK282461],80.8%
23,CCCc1cc(CNC(=O)c2cnn(-c3ccc(F)cc3)c2)on1 [CBK282463],86.6%
24,CCCc1cc(C(=O)NC2(CN3CCCC3)CCCCC2)[nH]n1 [CBK282464],98.1%

row,SMILES,"viability at 28.5 h, 10 µM"
1,CCCc1cc(C(=O)NC2CCN(Cc3cccc(F)c3)CC2)[nH]n1 [CBK282465],100%
2,CCCN1CCC(CNC(=O)c2cnn(-c3ccc(F)cc3)c2)CC1 [CBK282466],112%
3,CCCc1cc(C(=O)NC(C)(C)CN2CCCC(C)C2)[nH]n1 (stereo not shown) [CBK282467],89.1%
4,Cc1ccccc1C1(O)CCN(CC(O)c2ccc(F)cc2)CC1 (stereo not shown) [CBK282471],87.7%
5,Cc1nc2ccc(C(=O)NCC3CCCN(C(C)C)C3)cc2[nH]1 (stereo not shown) [CBK282475],90%
6,Cc1nc2ccc(C(=O)NCCCc3ccccn3)cc2s1 [CBK282478],88.2%
7,Cc1ccc(C2(CN3CCN(CC4CCOC4)CC3)CC2)cc1 (stereo not shown) [CBK282479],86.1%
8,Cc1ccc(CN(CCCN(C)C)Cc2nccn2C)o1 [CBK282481],105%
9,C=C(C)Cn1nc(C)c(CN(C)CCN2CCCCC2)c1C [CBK282483],88.7%
10,Cn1cc(CCCC(=O)NC2CCCOC2)c2ccccc21 (stereo not shown) [CBK282486],81.8%
11,CC1CCN(CC(O)c2ccc3c(c2)CCCN3C(=O)C2CC2)CC1 (stereo not shown) [CBK282488],96.9%
12,OC(CN1CCC(O)(c2ccc(F)cc2)CC1)c1ccccc1 (stereo not shown) [CBK282489],104%
13,OC(CN1CCC(O)(c2ccccc2F)CC1)c1ccccc1 (stereo not shown) [CBK282490],107%
14,Cc1ccccc1C1(O)CCN(CC(O)c2ccccc2)CC1 (stereo not shown) [CBK282491],83.7%
15,OC(CN1CCC(O)(c2ccccc2F)CC1)c1ccc(F)cc1 (stereo not shown) [CBK282492],87.2%
16,COc1cccc(CN(Cc2ccco2)Cc2cnc(C)n2C)c1 [CBK282494],93.6%
17,COc1cccc(CN(Cc2ncc[nH]2)Cc2ccco2)c1 [CBK282496],98.7%
18,O=C(NCCC(c1ccccc1)c1ccco1)C1CCCN1 (stereo not shown) [CBK282499],85%
19,CCc1c(C(=O)NCc2cc(C3CC3)[nH]n2)[nH]c2ccc(F)cc12 [CBK282501],76.3%
20,CC(=O)c1cn(CCC(=O)NC2CCCN(C)C2)c2ccccc12 (stereo not shown) [CBK282503],81.3%
21,Cc1cccc(C2(O)CCN(CC(O)c3ccc(F)cc3)CC2)c1 (stereo not shown) [CBK282504],96.6%
22,CCc1[nH]c2ccc(C(=O)NCCn3ccnc3C)cc2c1C [CBK282505],96.4%
23,Cc1cccc(C2(O)CCN(C(=O)CCCc3ccncc3)CC2)c1 [CBK282506],111%
24,Cn1c(CCC(=O)Nc2c[nH]c3ccccc23)nc2ccccc21 [CBK282507],85.9%

row,SMILES,"viability at 28.5 h, 10 µM"
1,CCOC(=O)C(C)NC(=O)c1ccc2nc(C)sc2c1 (stereo not shown) [CBK282508],85.5%
2,Cc1c(C(=O)NCC[S+](C)[O-])oc2c(C)cccc12 (stereo not shown) [CBK282511],88.8%
3,Cc1nn(-c2cccc(C(=O)NC3CCCOC3)c2)c(C)c1Cl (stereo not shown) [CBK282512],83.6%
4,COc1ccccc1CCCNC(=O)c1csc(C(C)=O)c1 [CBK282513],98.8%
5,CC(=O)c1cc(C(=O)NC(c2ccccc2)c2cccnc2)cs1 (stereo not shown) [CBK282514],125%
6,COc1ccccc1CC(C)NC(=O)c1csc(C(C)=O)c1 (stereo not shown) [CBK282517],114%
7,Cc1ccn(CCNC(=O)c2ccc3c(C)c(C)[nH]c3c2)n1 [CBK282519],101%
8,CCc1nc2cc(NC(=O)c3csc(C(C)=O)c3)ccc2n1C [CBK282522],105%
9,Cc1ccc(C)c2c(C)c(C(=O)N3CCC(O)C(C)C3)[nH]c12 (stereo not shown) [CBK282527],97.4%
10,CCOc1ccc2[nH]c(C(=O)NC3CCCOC3)c(C)c2c1 (stereo not shown) [CBK282529],113%
11,CCOc1ccc2[nH]c(C(=O)NC3CCCN(C)C3)c(C)c2c1 (stereo not shown) [CBK282530],109%
12,CC(=O)c1cc(C(=O)N2CCC(O)(c3cccc(C)c3)CC2)cs1 [CBK282531],92.8%
13,Cc1n[nH]c(C)c1CNC(=O)c1[nH]c2c(Cl)cccc2c1C [CBK282534],96%
14,CC(C)c1cc(C(=O)NC(c2ccccc2)c2ccnn2C)n(C)n1 (stereo not shown) [CBK282535],102%
15,CN(Cc1cccc2ncccc12)C(=O)c1cc(C2CC2)nn1C [CBK282537],108%
16,CC1(C)CC(N(Cc2ccc(F)cc2)Cc2c[nH]cn2)CC(C)(C)N1 [CBK282540],102%
17,COc1ccc2cc(C(=O)NC3CCCN(C)C3)n(C)c2c1 (stereo not shown) [CBK282541],85.1%
18,CCCN1CCC(CNC(=O)c2cc3ccc(OC)cc3n2C)CC1 [CBK282542],99.9%
19,O=C1CN(C(=O)Cn2c(-c3cccs3)cc3cccnc32)CCN1 [CBK282543],100%
20,COc1ccc2cc(C(=O)NCCn3ccnc3C)n(C)c2c1 [CBK282544],94.1%
21,COCC(=O)NC1CCN(CC2(c3cccc(F)c3)CCCC2)CC1 [CBK282546],108%
22,CN1CCCC(NC(=O)Cn2nc(C(F)(F)F)c3c2CCCC3)C1 (stereo not shown) [CBK282548],101%
23,Cc1[nH]c2c(C(=O)NCCCC3CCOC3)cccc2c1C (stereo not shown) [CBK282551],84.1%
24,O=C(Cn1c(-c2cccs2)cc2cccnc21)NC1CC1 [CBK282552],101%

row,SMILES,"viability at 28.5 h, 10 µM"
1,O=C(Cn1c(-c2cccs2)cc2cccnc21)NCC1CC1 [CBK282553],106%
2,CN(C)CCNC(=O)Cn1c(-c2cccs2)cc2cccnc21 [CBK282555],92.6%
3,COCCCNC(=O)Cn1c(-c2cccs2)cc2cccnc21 [CBK282559],87.2%
4,Cc1nn(C(C)C)c(C)c1CN1CCN(C2CCCCC2)C(=O)C1 [CBK282562],109%
5,C[S+]([O-])CCNC(=O)c1cc(-c2cccs2)no1 (stereo not shown) [CBK282563],84.5%
6,CN1CCC(CNC(=O)Cn2ccc3ccc(F)cc32)(N(C)C)CC1 [CBK282569],107%
7,O=C(Cn1ccc2ccc(F)cc21)Nc1cccc(-n2cnnc2)c1 [CBK282570],111%
8,CC(=O)c1csc(NC(=O)Cn2ccc3ccc(F)cc32)n1 [CBK282572],90.5%
9,CCCN1CCC(CNC(=O)Cn2ccc3ccc(F)cc32)CC1 [CBK282573],88%
10,C=CCC1(CC=C)CCN1C(=O)c1cc(-c2c(C)nn(C)c2C)n[nH]1 [CBK282575],82.2%
11,Cc1cc2occ(CC(=O)NCc3cc(C4CC4)[nH]n3)c2cc1C [CBK282576],87.1%
12,CC1(C)CC(N(Cc2c[nH]cn2)Cc2ccccc2F)CC(C)(C)N1 [CBK282579],92.9%
13,C=Cn1cc(CN2CCC(O)(c3ccccc3C)CC2)c(C)n1 [CBK282580],93.7%
14,C=CCn1cc(CN2CCC(O)(c3ccccc3C)CC2)c(C)n1 [CBK282581],86.5%
15,C=Cn1ncc(CN2CCC(O)(c3ccccc3C)CC2)c1C [CBK282582],88.6%
16,O=C(O)CCn1c(-c2ccc(F)cc2)cc2cccnc21 [CBK282583],84.4%
17,CCc1cccc2c(CC(=O)NC3CCCOC3)c(C)[nH]c12 (stereo not shown) [CBK282584],105%
18,C=CCOc1ccc(Cl)cc1C(=O)NCc1c(C)n[nH]c1C [CBK282587],82.6%
19,CC(=O)NC1CCN(CC2(c3ccccc3F)CCCC2)CC1 [CBK282591],86.7%
20,C=Cn1cc(CN2CCCN(Cc3cccc(F)c3)CC2)c(C)n1 [CBK282594],98.7%
21,COc1ccccc1CC(C)NC(=O)c1ccnn1C(C)C (stereo not shown) [CBK282595],86.9%
22,CCOc1cc(CCC(=O)NC(C)c2ccccc2)on1 (stereo not shown) [CBK282597],82.3%
